For this test, the system named is GST-Bcl-2. As to the kind of experiment: TR-FRET binding assay, Bcl-2. To be noted: TR-FRET Ki values. In outline:
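Ki values come from Wang's competitive-binding equation applied to TR-FRET signal (excitation 340/35 nm; emission 520/525 nm F-Bak peptide, 495/510 nm Tb antibody). Protein, probe and antibody incubated with compound 3 h at room temperature; dilution series began at 50 μM as 2× stock in 10% DMSO.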
Take `CN(C)CC(=O)N1CC[C@@H](Nc2ccc(S(=O)(=O)NC(=O)c3ccc(N4CCN(CC5=C(c6ccc(Cl)cc6)CC(C)(C)CC5)CC4)cc3Oc3cccc4[nH]cnc34)cc2[N+](=O)[O-])C1` [EXAMPLE 430, 2-(1H-benzimidazol-4-yloxy)-4-(4-{[2-(4-chlorophenyl)-4,4-dimethylcyclohex-1-en-1-yl]methyl}piperazin-1-yl)-N-[(4-{[(3R)-1-(N,N-dimethylglycyl)pyrrolidin-3-yl]amino}-3-nitrophenyl)sulfonyl]benzamide]: the “Binding selectivity ratio (Bcl-XL Ki/Bcl-2 Ki)” value (from here on “Binding selectivity ratio”) was determined as 99.767.
In the case of `CC1(C)CCC(CN2CCN(c3ccc(C(=O)NS(=O)(=O)c4ccc(NCCC5CCOCC5)c([N+](=O)[O-])c4)c(Oc4ccc5[nH]ccc5c4)c3)CC2)=C(c2ccc(Cl)cc2)C1` [EXAMPLE 291, 4-(4-{[2-(4-chlorophenyl)-4,4-dimethylcyclohex-1-en-1-yl]methyl}piperazin-1-yl)-2-(1H-indol-5-yloxy)-N-({3-nitro-4-[(2-tetrahydro-2H-pyran-4-ylethyl)amino]phenyl}sulfonyl)benzamide], the “Binding selectivity ratio” value is on record as over 1179.1.
Under `CN(C)CCOc1cccc(-c2ccc(Cl)cc2)c1CN1CCN(c2ccc(C(=O)NS(=O)(=O)c3ccc(NCC4CCOCC4)c(S(=O)(=O)C(F)(F)F)c3)c(Oc3ccccc3)c2)CC1` [Example 124, 4-[4-({4′-chloro-3-[2-(dimethylamino)ethoxy]-1,1′-biphenyl-2-yl}methyl)piperazin-1-yl]-2-phenoxy-N-({4-[(tetrahydro-2H-pyran-4-ylmethyl)amino]-3-[(trifluoromethyl)sulfonyl]phenyl}sulfonyl)benzamide] stands 220.1; under `CN1CC[C@H](Nc2ccc(S(=O)(=O)NC(=O)c3ccc(N4CCN(CC5=C(c6ccc(Cl)cc6)CC(C)(C)CC5)CC4)cc3Oc3ccc4[nH]ccc4c3)cc2[N+](=O)[O-])C1` [EXAMPLE 234, 4-(4-{[2-(4-chlorophenyl)-4,4-dimethylcyclohex-1-en-1-yl]methyl}piperazin-1-yl)-2-(1H-indol-5-yloxy)-N-[(4-{[(3S)-1-methylpyrrolidin-3-yl]amino}-3-nitrophenyl)sulfonyl]benzamide], 66.3.
Take `CC1(C)CCC(CN2CCN(c3ccc(C(=O)NS(=O)(=O)c4ccc(NCC5CCC(F)(F)CC5)c([N+](=O)[O-])c4)c(Oc4cccc5[nH]ncc45)c3)CC2)=C(c2ccc(Cl)cc2)C1` [EXAMPLE 412, 4-(4-{[2-(4-chlorophenyl)-4,4-dimethylcyclohex-1-en-1-yl]methyl}piperazin-1-yl)-N-[(4-{[(4,4-difluorocyclohexyl)methyl]amino}-3-nitrophenyl)sulfonyl]-2-(1H-indazol-4-yloxy)benzamide]: the “Binding selectivity ratio” value was found to be 6545.
Regarding `CC1(C)CCC(CN2CCN(c3ccc(C(=O)NS(=O)(=O)c4ccc(OCC5CCOC(C)(C)C5)c([N+](=O)[O-])c4)c(Oc4ccc5[nH]ccc5c4)c3)CC2)=C(c2ccc(Cl)cc2)C1` (stereo not shown) [EXAMPLE 384, 4-(4-{[2-(4-chlorophenyl)-4,4-dimethylcyclohex-1-en-1-yl]methyl}piperazin-1-yl)-N-({4-[(2,2-dimethyltetrahydro-2H-pyran-4-yl)methoxy]-3-nitrophenyl}sulfonyl)-2-(1H-indol-5-yloxy)benzamide], the “Binding selectivity ratio” value is listed as over 8684.2.
On to `O=C(NS(=O)(=O)c1ccc(NCCn2ccnn2)c([N+](=O)[O-])c1)c1ccc(N2CCN(Cc3ccccc3-c3ccc(Cl)cc3)CC2)cc1Oc1ccccc1` [Example 164, 4-{4-[(4′-chloro-1,1′-biphenyl-2-yl)methyl]piperazin-1-yl}-N-[(3-nitro-4-{[2-(1H-1,2,3-triazol-1-yl)ethyl]amino}phenyl)sulfonyl]-2-phenoxybenzamide], for which the “Binding selectivity ratio” value is 143.3.
As for `CC1(C)CCC(CN2CCN(c3ccc(C(=O)NS(=O)(=O)c4ccc(NC5CCN(CC(F)(F)F)CC5)c([N+](=O)[O-])c4)c(Oc4cccc5[nH]ccc45)c3)CC2)=C(c2ccc(Cl)cc2)C1` [Example 108, 4-(4-{[2-(4-chlorophenyl)-4,4-dimethylcyclohex-1-en-1-yl]methyl}piperazin-1-yl)-2-(1H-indol-4-yloxy)-N-[(3-nitro-4-{[1-(2,2,2-trifluoroethyl)piperidin-4-yl]amino}phenyl)sulfonyl]benzamide], the “Binding selectivity ratio” value is on record as 25.5.
As to `O=C(NS(=O)(=O)c1ccc(NC2CCN(S(=O)(=O)c3cccc4cccnc34)CC2)c([N+](=O)[O-])c1)c1ccc(N2CCN(Cc3ccccc3-c3ccc(Cl)cc3)CC2)cc1Oc1ccccc1` [Example 158, 4-{4-[(4′-chloro-1,1′-biphenyl-2-yl)methyl]piperazin-1-yl}-N-[(3-nitro-4-{[1-(quinolin-8-ylsulfonyl)piperidin-4-yl]amino}phenyl)sulfonyl]-2-phenoxybenzamide], the “Binding selectivity ratio” value is reported as over 10.2.
For the compound `CN(C)CC#Cc1ccc(-c2ccc(Cl)cc2)c(CN2CCN(c3ccc(C(=O)NS(=O)(=O)c4ccc(NCC5CCOCC5)c([N+](=O)[O-])c4)c(Oc4cccc5[nH]ccc45)c3)CC2)c1` [EXAMPLE 209, 4-[4-({4′-chloro-4-[3-(dimethylamino)prop-1-ynyl]-1,1′-biphenyl-2-yl}methyl)piperazin-1-yl]-2-(1H-indol-4-yloxy)-N-({3-nitro-4-[(tetrahydro-2H-pyran-4-ylmethyl)amino]phenyl}sulfonyl)benzamide], the “Binding selectivity ratio” value is recorded as over 2476.0.
`CC1(C)CCC(CN2CCN(c3ccc(C(=O)NS(=O)(=O)c4ccc(NCC5CCS(=O)(=O)C5)c([N+](=O)[O-])c4)c(Oc4ccc5[nH]ccc5c4)c3)CC2)=C(c2ccc(Cl)cc2)C1` (stereo not shown) [EXAMPLE 275, 4-(4-{[2-(4-chlorophenyl)-4,4-dimethylcyclohex-1-en-1-yl]methyl}piperazin-1-yl)-N-[(4-{[(1,1-dioxidotetrahydrothien-3-yl)methyl]amino}-3-nitrophenyl)sulfonyl]-2-(1H-indol-5-yloxy)benzamide]: the “Binding selectivity ratio” value is listed as over 6832.4.
For `CC1(C)CCC(CN2CCN(c3ccc(C(=O)NS(=O)(=O)c4ccc(S(=O)(=O)N5CCOCC5)cc4)c(Oc4ccc5[nH]ccc5c4)c3)CC2)=C(c2ccc(Cl)cc2)C1` [EXAMPLE 361, 4-(4-{[2-(4-chlorophenyl)-4,4-dimethylcyclohex-1-en-1-yl]methyl}piperazin-1-yl)-2-(1H-indol-5-yloxy)-N-{[4-(morpholin-4-ylsulfonyl)phenyl]sulfonyl}benzamide] the value was over 92.6.
For the compound `CC1(C)CCC(CN2CCN(c3ccc(C(=O)NS(=O)(=O)c4ccc(NC5CCN(c6nccs6)CC5)c([N+](=O)[O-])c4)c(Oc4ccc5[nH]ccc5c4)c3)CC2)=C(c2ccc(Cl)cc2)C1` [EXAMPLE 212, 4-(4-{[2-(4-chlorophenyl)-4,4-dimethylcyclohex-1-en-1-yl]methyl}piperazin-1-yl)-2-(1H-indol-5-yloxy)-N-[(3-nitro-4-{[1-(1,3-thiazol-2-yl)piperidin-4-yl]amino}phenyl)sulfonyl]benzamide], the “Binding selectivity ratio” value was over 895.1.
Take `COC1CCN(c2ccc(S(=O)(=O)NC(=O)c3ccc(N4CCN(CC5=C(c6ccc(Cl)cc6)CC(C)(C)CC5)CC4)cc3Oc3ccc4[nH]ccc4c3)cc2[N+](=O)[O-])CC1` [EXAMPLE 271, 4-(4-{[2-(4-chlorophenyl)-4,4-dimethylcyclohex-1-en-1-yl]methyl}piperazin-1-yl)-2-(1H-indol-5-yloxy)-N-{[4-(4-methoxypiperidin-1-yl)-3-nitrophenyl]sulfonyl}benzamide]: the “Binding selectivity ratio” value is over 107.2.
On to `CN1CCC(O)(CNc2ccc(S(=O)(=O)NC(=O)c3ccc(N4CCN(CC5=C(c6ccc(Cl)cc6)CC(C)(C)CC5)CC4)cc3Oc3cccc4[nH]ccc34)cc2[N+](=O)[O-])CC1` [EXAMPLE 186, 4-(4-{[2-(4-chlorophenyl)-4,4-dimethylcyclohex-1-en-1-yl]methyl}piperazin-1-yl)-N-[(4-{[(4-hydroxy-1-methylpiperidin-4-yl)methyl]amino}-3-nitrophenyl)sulfonyl]-2-(1H-indol-4-yloxy)benzamide], for which the “Binding selectivity ratio” value was found to be 1069.2.
`CN(C)CC(=O)N1CCO[C@@H](COc2ncc(S(=O)(=O)NC(=O)c3ccc(N4CCN(CC5=C(c6ccc(Cl)cc6)CC(C)(C)CC5)CC4)cc3Oc3cccc4[nH]cnc34)cc2Cl)C1` [EXAMPLE 424, 2-(1H-benzimidazol-4-yloxy)-N-[(5-chloro-6-{[(2R)-4-(N,N-dimethylglycyl)morpholin-2-yl]methoxy}pyridin-3-yl)sulfonyl]-4-(4-{[2-(4-chlorophenyl)-4,4-dimethylcyclohex-1-en-1-yl]methyl}piperazin-1-yl)benzamide]: the “Binding selectivity ratio” value is 782.52.
Take `CC1(C)CCC(CN2CCN(c3ccc(C(=O)NS(=O)(=O)c4ccc(NC5CCN(C6CCOCC6)CC5)c([N+](=O)[O-])c4)c(Oc4cccc5[nH]ncc45)c3)CC2)=C(c2ccc(Cl)cc2)C1` [EXAMPLE 401, 4-(4-{[2-(4-chlorophenyl)-4,4-dimethylcyclohex-1-en-1-yl]methyl}piperazin-1-yl)-2-(1H-indazol-4-yloxy)-N-({3-nitro-4-[(1-tetrahydro-2H-pyran-4-ylpiperidin-4-yl)amino]phenyl}sulfonyl)benzamide]: the “Binding selectivity ratio” value is given as over 162.14.
For `CNc1ccc(S(=O)(=O)NC(=O)c2ccc(N3CCN(CC4=C(c5ccc(Cl)cc5)CC(C)(C)CC4)CC3)cc2Oc2ccc3[nH]ccc3c2)cc1[N+](=O)[O-]` [EXAMPLE 245, 4-(4-{[2-(4-chlorophenyl)-4,4-dimethylcyclohex-1-en-1-yl]methyl}piperazin-1-yl)-2-(1H-indol-5-yloxy)-N-{[4-(methylamino)-3-nitrophenyl]sulfonyl}benzamide], the “Binding selectivity ratio” value is recorded as over 408.2.
In the case of `CC1(C)CCC(CN2CCN(c3ccc(C(=O)NS(=O)(=O)c4ccc(NC5CCN(C6CCOCC6)CC5)c([N+](=O)[O-])c4)c(Oc4cccnc4)c3)CC2)=C(c2ccc(Cl)cc2)C1` [EXAMPLE 398, 4-(4-{[2-(4-chlorophenyl)-4,4-dimethylcyclohex-1-en-1-yl]methyl}piperazin-1-yl)-N-({3-nitro-4-[(1-tetrahydro-2H-pyran-4-ylpiperidin-4-yl)amino]phenyl}sulfonyl)-2-(pyridin-3-yloxy)benzamide], the “Binding selectivity ratio” value is given as 67.69.

Source of the values: patent US9125913B2, “Bcl-2-selective apoptosis-inducing agents for the treatment of cancer and immune diseases” (AbbVie Inc., priority 2008, dated 2015).
